This is an account of results in ChEMBL document CHEMBL1777691, “Structure based design of novel inhibitors for histidinol dehydrogenase from Geotrichum candidum” (Bioorg Med Chem Lett, 2010).

The term IC50 denotes the midpoint of a concentration-inhibition curve.

The nature of the assay: Inhibition of Geotrichum candidum Histidinol dehydrogenase.
`O=C(O)CCc1c[nH]cn1` came in with an IC50 of 3.17 µM. As for `O=C(O)C1Cc2cncn2C(=O)N1` (stereo not drawn), the IC50 worked out at 3.56 µM. `O=C1NCCc2cncn21` gave an IC50 of 24.2 µM. Then `CCOC(=O)NC(Cc1cn(C)cn1)C(=O)OC` (stereo not drawn), with 29.3 µM; and `COC(=O)NC(Cc1cncn1C)C(=O)OC` (stereo not drawn), with 10.6 µM; and `COC(=O)C1Cc2c(Cl)ncn2C(=O)N1` (stereo not drawn), with 122 µM. Compound `COC(=O)CCc1c[nH]cn1` gave an IC50 of 5.2 µM. The figure for `O=C(O)C1Cc2c(I)nc(I)n2C(=O)N1` (stereo not drawn) is 58.7 µM.
